In ChEMBL document CHEMBL1201862, “PubChem BioAssay data set” (2004):
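Tested at 5 concentrations; 48 h exposure; 96-well plates; endpoints linearly interpolated, else capped at highest concentration. GI50 = concentration required for 50% inhibition of growth.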 The source made the active and inactive calls. Rule as the data show it: active = GI50 up to about 1.1 µM and inactive = higher.

What was measured:
Assay in all cases: NCI anticancer screen, dose series, 48 h
[1] = tested on: HCT-116
[2] = tested on: SK-OV-3
[3] = tested on: UACC-257
[4] = tested on: SNB-19
[5] = tested on: Malme-3M
[6] = tested on: A549
[7] = tested on: SW-620
[8] = tested on: SR
[9] = tested on: SN12C
[10] = tested on: U-251
[11] = tested on: DMS-114
[12] = tested on: NCI-H522
[13] = tested on: HCC 2998
[14] = tested on: ACHN
[15] = tested on: CAKI-1
[16] = tested on: LOX IMVI
[17] = tested on: DU-145
[18] = tested on: MDA-MB-435
[19] = tested on: NCI/ADR-RES
[20] = tested on: BT-549

Row | Compound | GI50 [1] | GI50 [2] | GI50 [3] | GI50 [4] | GI50 [5] | GI50 [6] | GI50 [7] | GI50 [8] | GI50 [9] | GI50 [10] | GI50 [11] | GI50 [12] | GI50 [13] | GI50 [14] | GI50 [15] | GI50 [16] | GI50 [17] | GI50 [18] | GI50 [19] | GI50 [20]
1 | CC(=O)Oc1c(-c2ccccc2)[nH]c2cc([N+](=O)[O-])c(/C(Cl)=C/c3ccccc3)cc12 | 3.91 µM (inactive) | 26.9 µM (inactive) | 5.77 µM (inactive) | 8.97 µM (inactive) | 4.1 µM (inactive) | 6.15 µM (inactive) | 8.89 µM (inactive) | 3.57 µM (inactive) | 4.86 µM (inactive) | 4.52 µM (inactive) | 2.17 µM (inactive) | 4.86 µM (inactive) | 4.6 µM (inactive) | 5.4 µM (inactive) | 10.7 µM (inactive) | – | – | – | – | –
2 | Clc1ccc(-c2c(C3=NCCN3)nnn2-c2ccccc2)cc1 | 83.4 µM (inactive) | > 100 µM (inactive) | > 100 µM (inactive) | > 100 µM (inactive) | > 100 µM (inactive) | > 100 µM (inactive) | > 100 µM (inactive) | 49.2 µM (inactive) | > 100 µM (inactive) | > 100 µM (inactive) | > 100 µM (inactive) | > 100 µM (inactive) | > 100 µM (inactive) | > 100 µM (inactive) | > 100 µM (inactive) | > 100 µM (inactive) | – | – | – | –
3 | Nc1ccc2ncc(Nc3ccc(F)cc3)nc2c1 | > 100 µM (inactive) | – | > 100 µM (inactive) | > 100 µM (inactive) | > 100 µM (inactive) | > 100 µM (inactive) | > 100 µM (inactive) | 44 µM (inactive) | > 100 µM (inactive) | > 100 µM (inactive) | 85.3 µM (inactive) | > 100 µM (inactive) | > 100 µM (inactive) | > 100 µM (inactive) | > 100 µM (inactive) | > 100 µM (inactive) | – | – | – | –
4 | COc1ccc(CC(=O)NCCc2ccc(OC)c(OC)c2)cc1Br | – | > 100 µM (inactive) | > 100 µM (inactive) | > 100 µM (inactive) | > 100 µM (inactive) | > 100 µM (inactive) | > 100 µM (inactive) | > 100 µM (inactive) | > 100 µM (inactive) | > 100 µM (inactive) | > 100 µM (inactive) | > 100 µM (inactive) | > 100 µM (inactive) | > 100 µM (inactive) | > 100 µM (inactive) | > 100 µM (inactive) | – | – | – | –
5 | Nc1nc(N)c(CCCCc2ccccc2)c(/C=C/c2ccc([N+](=O)[O-])cc2)n1 | 1.16 µM (inactive) | 6.67 µM (inactive) | 2.51 µM (inactive) | 3.8 µM (inactive) | 1.67 µM (inactive) | 0.388 µM (active) | 1.24 µM (inactive) | 1.56 µM (inactive) | 2.74 µM (inactive) | 2.13 µM (inactive) | 1.45 µM (inactive) | 2.24 µM (inactive) | 2.65 µM (inactive) | 3.4 µM (inactive) | 3.92 µM (inactive) | 1.85 µM (inactive) | – | – | – | –
6 | c1ccc(C2SCc3nc4ccccc4n32)cc1 (stereo not drawn) | 19.7 µM (inactive) | 91.8 µM (inactive) | 27.8 µM (inactive) | 32.2 µM (inactive) | 38.3 µM (inactive) | 50.1 µM (inactive) | 51.4 µM (inactive) | 25.8 µM (inactive) | 46.1 µM (inactive) | 58.7 µM (inactive) | 19 µM (inactive) | 18.9 µM (inactive) | 30.4 µM (inactive) | 59.3 µM (inactive) | 42.7 µM (inactive) | 39.9 µM (inactive) | – | – | – | –
7 | COc1ccc(/C=C2\CCC(CN3CCOCC3)C2=O)cc1 (stereo not drawn) | 1.8 µM (inactive) | 16.4 µM (inactive) | 2.37 µM (inactive) | 11.4 µM (inactive) | 3.01 µM (inactive) | 9.57 µM (inactive) | 1.79 µM (inactive) | 1.46 µM (inactive) | 3.83 µM (inactive) | 17.3 µM (inactive) | 2.72 µM (inactive) | 0.776 µM (active) | 5.48 µM (inactive) | 4.73 µM (inactive) | 1.99 µM (inactive) | 4.65 µM (inactive) | 2.23 µM (inactive) | 2.05 µM (inactive) | 2.62 µM (inactive) | 2.25 µM (inactive)
